The source of these data is paper PMC6934184, “Selective DNA-PKcs inhibition extends the therapeutic index of localized radiotherapy and chemotherapy” (The Journal of Clinical Investigation, 2019).

Molecules are shown by their SMILES.

The assay has as its target T1, SPHK1 (Homo sapiens, UniProt Q9NYA1).
T1 construct: purchased Thermo Fisher Scientific (Life Technologies) SelectScreen
Nature of the assay: SelectScreen Adapta. In kind it is biochemical. Put shortly: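 Percent values come from Thermo SelectScreen profiling of NU5455, combining activity and binding assays. CSF1R was run in Z'LYTE format at Km app ATP, and CAMK1 in Adapta format with ATP listed at 10.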

T1 sequence (Q9NYA1 whole entry): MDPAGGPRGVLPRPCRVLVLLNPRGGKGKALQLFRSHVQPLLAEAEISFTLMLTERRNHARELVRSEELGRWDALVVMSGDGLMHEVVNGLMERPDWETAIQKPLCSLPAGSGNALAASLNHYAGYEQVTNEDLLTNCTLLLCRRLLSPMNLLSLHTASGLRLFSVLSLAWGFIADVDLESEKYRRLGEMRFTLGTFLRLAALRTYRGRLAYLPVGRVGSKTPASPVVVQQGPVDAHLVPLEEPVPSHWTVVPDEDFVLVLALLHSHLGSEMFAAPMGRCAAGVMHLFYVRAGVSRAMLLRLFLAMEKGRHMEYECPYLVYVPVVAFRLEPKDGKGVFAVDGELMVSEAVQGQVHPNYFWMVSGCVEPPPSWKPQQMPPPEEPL

Broadly, the inhibition is the change of the read-out against control, counted positive when it falls. Consider `CN(C(=O)CN1CCOCC1)c1ccc2sc3c(-c4cccc5c(=O)cc(N6CC7CCC(C6)O7)oc45)cccc3c2c1` [NU5455], for which 1 µM produced 2.7% inhibition.
